The NIST ThermoML archive (doi:10.1021/je049612f)

Settings: Gas, Vibrating wire viscometry

FS(F)(F)(F)(F)F [sulfur hexafluoride]
Settings	viscosity [mPa·s]
300 K, 26.36 kPa	0.01529
300 K, 50.94 kPa	0.01531
300 K, 73.62 kPa	0.01532
300 K, 105.89 kPa	0.01532
300 K, 125.7 kPa	0.01533
300 K, 152.62 kPa	0.01533
300 K, 177.62 kPa	0.01533
300 K, 195.25 kPa	0.01534
300 K, 227.52 kPa	0.01534
300 K, 251.51 kPa	0.01535
300 K, 278.58 kPa	0.01535
300 K, 301.45 kPa	0.01535
300 K, 327.3 kPa	0.01536
300 K, 353.41 kPa	0.01536
300 K, 378.55 kPa	0.01537
300 K, 401.57 kPa	0.01537
300 K, 425.72 kPa	0.01538
300 K, 444.52 kPa	0.01538
300 K, 471.71 kPa	0.01539
300 K, 491.53 kPa	0.0154
300 K, 538.31 kPa	0.01541
300 K, 565.24 kPa	0.01542
300 K, 597.98 kPa	0.01543
300 K, 634.58 kPa	0.01544
300 K, 665.1 kPa	0.01545
300 K, 700.96 kPa	0.01546
300 K, 731.45 kPa	0.01547
300 K, 763.98 kPa	0.01548
300 K, 800.2 kPa	0.01549
300 K, 835.89 kPa	0.01551
300 K, 869.95 kPa	0.01553
300 K, 898.41 kPa	0.01554
300 K, 930.75 kPa	0.01556
300 K, 968.74 kPa	0.01558
300 K, 997.76 kPa	0.01559
300 K, 1036.4 kPa	0.01561
300 K, 1090.2 kPa	0.01565
300 K, 1140.1 kPa	0.01568
300 K, 1181.5 kPa	0.0157
300 K, 1223.6 kPa	0.01574
300 K, 1280.6 kPa	0.01578
300 K, 1333.3 kPa	0.01582
300 K, 1380.9 kPa	0.01586
300 K, 1417.9 kPa	0.01589
300 K, 1493.3 kPa	0.01596
300 K, 1537.7 kPa	0.016
300 K, 1594.6 kPa	0.01606
300 K, 1637.3 kPa	0.01611
300 K, 1680.6 kPa	0.01616
300 K, 1735.3 kPa	0.01622
300 K, 1784.4 kPa	0.01629
300 K, 1826.5 kPa	0.01635
300 K, 1865.1 kPa	0.01641
300 K, 1927.3 kPa	0.0165
300 K, 1980 kPa	0.01659
300 K, 2039.3 kPa	0.0167
316 K, 112.75 kPa	0.01605
316 K, 143.54 kPa	0.01605
316 K, 174.6 kPa	0.01606
316 K, 197.59 kPa	0.01606
316 K, 218.05 kPa	0.01607
316 K, 245.03 kPa	0.01607
316 K, 262.84 kPa	0.01607
316 K, 287.46 kPa	0.01608
316 K, 307.35 kPa	0.01608
316 K, 332.06 kPa	0.01609
316 K, 357.7 kPa	0.0161
316 K, 383.76 kPa	0.0161
316 K, 402.43 kPa	0.01611
316 K, 428.01 kPa	0.01611
316 K, 468.39 kPa	0.01613
316 K, 490.91 kPa	0.01613
316 K, 519.48 kPa	0.01614
316 K, 548.34 kPa	0.01615
316 K, 585.01 kPa	0.01616
316 K, 614.48 kPa	0.01617
316 K, 650.85 kPa	0.01618
316 K, 685.07 kPa	0.0162
316 K, 712.63 kPa	0.0162
316 K, 749.05 kPa	0.01622
316 K, 780.4 kPa	0.01623
316 K, 810.74 kPa	0.01624
316 K, 843.2 kPa	0.01626
316 K, 882.81 kPa	0.01628
316 K, 913.9 kPa	0.01629
316 K, 955.92 kPa	0.01631
316 K, 994.72 kPa	0.01634
316 K, 1031.1 kPa	0.01635
316 K, 1084.1 kPa	0.01638
316 K, 1120.4 kPa	0.01641
316 K, 1178.3 kPa	0.01644
316 K, 1215.2 kPa	0.01646
316 K, 1257.3 kPa	0.0165
316 K, 1314.3 kPa	0.01654
316 K, 1374.4 kPa	0.01658
316 K, 1422.9 kPa	0.01662
316 K, 1465.6 kPa	0.01665
316 K, 1530.4 kPa	0.01671
316 K, 1572.7 kPa	0.01674
316 K, 1609.8 kPa	0.01678
316 K, 1667.2 kPa	0.01684
316 K, 1724.2 kPa	0.01689
316 K, 1772.5 kPa	0.01694
316 K, 1821.1 kPa	0.017
316 K, 1860.3 kPa	0.01704
316 K, 1922.7 kPa	0.01711
316 K, 1988.5 kPa	0.0172
316 K, 2021.6 kPa	0.01725
316 K, 2087.4 kPa	0.01733
316 K, 2155.2 kPa	0.01744
316 K, 2223.8 kPa	0.01755
316 K, 2273.2 kPa	0.01763
316 K, 2319.1 kPa	0.01771
316 K, 2375.8 kPa	0.01781
316 K, 2448.5 kPa	0.01796
316 K, 2510 kPa	0.01809
316 K, 2587.2 kPa	0.01826
316 K, 2658.2 kPa	0.01844
316 K, 2724.3 kPa	0.01862
316 K, 2792.7 kPa	0.01883
316 K, 2860.9 kPa	0.01906
316 K, 2916.5 kPa	0.01925
316 K, 2981.1 kPa	0.0195
316 K, 3007.9 kPa	0.01963
316 K, 3070 kPa	0.01992
316 K, 3135.2 kPa	0.02025
321 K, 77.46 kPa	0.01627
321 K, 97.02 kPa	0.01627
321 K, 114.16 kPa	0.01627
321 K, 146.57 kPa	0.01628
321 K, 169.96 kPa	0.01629
321 K, 205.62 kPa	0.01629
321 K, 239.58 kPa	0.0163
321 K, 264.1 kPa	0.0163
321 K, 293.39 kPa	0.01631
321 K, 339.65 kPa	0.01632
321 K, 374.89 kPa	0.01633
321 K, 400.93 kPa	0.01634
321 K, 428.98 kPa	0.01634
321 K, 457.31 kPa	0.01635
321 K, 488.99 kPa	0.01636
321 K, 523.86 kPa	0.01637
321 K, 563.16 kPa	0.01638
321 K, 592.18 kPa	0.01639
321 K, 633.22 kPa	0.01641
321 K, 681.18 kPa	0.01643
321 K, 732.46 kPa	0.01644
321 K, 790.88 kPa	0.01647
321 K, 823.55 kPa	0.01648
321 K, 857.52 kPa	0.0165
321 K, 896.2 kPa	0.01652
321 K, 934.23 kPa	0.01654
321 K, 969 kPa	0.01655
321 K, 1031.4 kPa	0.01658
321 K, 1089.4 kPa	0.01662
321 K, 1125 kPa	0.01664
321 K, 1178.7 kPa	0.01667
321 K, 1223.2 kPa	0.0167
321 K, 1282.4 kPa	0.01674
321 K, 1340 kPa	0.01678
321 K, 1386.2 kPa	0.01682
321 K, 1431.8 kPa	0.01686
321 K, 1483.3 kPa	0.01689
321 K, 1538.9 kPa	0.01694
321 K, 1647 kPa	0.01703
321 K, 1693.1 kPa	0.01708
321 K, 1744.5 kPa	0.01713
321 K, 1788.6 kPa	0.01718
321 K, 1847.4 kPa	0.01724
